According to ChEMBL document CHEMBL1201862, “PubChem BioAssay data set” (2004):
Values belong to the molecule of their own block, whether it stands above or below them. Calls of active or inactive are those of the source.

What was measured:
[1] = target: T1, DNA repair protein RAD52 homolog (Homo sapiens, UniProt P43351); assay type: functional, biochemical
T1 sequence (P43351 whole entry): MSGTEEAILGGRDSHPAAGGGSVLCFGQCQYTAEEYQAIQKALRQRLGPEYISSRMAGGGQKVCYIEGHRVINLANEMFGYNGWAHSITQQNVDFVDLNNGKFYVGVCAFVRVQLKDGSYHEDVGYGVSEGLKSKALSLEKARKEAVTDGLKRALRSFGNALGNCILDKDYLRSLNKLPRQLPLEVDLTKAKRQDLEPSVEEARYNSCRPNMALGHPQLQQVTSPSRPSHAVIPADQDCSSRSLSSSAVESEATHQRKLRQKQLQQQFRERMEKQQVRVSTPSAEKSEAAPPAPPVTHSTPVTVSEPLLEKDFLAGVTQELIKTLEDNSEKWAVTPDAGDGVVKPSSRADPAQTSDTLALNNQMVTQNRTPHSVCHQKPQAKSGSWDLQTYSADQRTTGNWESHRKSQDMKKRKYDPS

[2] = target: T2, DNA repair and recombination protein RAD54-like (Homo sapiens, UniProt Q92698); test: RAD54 Holliday junction migration blockers – biochemical, fluorescence, cherry-picked samples, dose series, confirmation (AID 651657); assay type: functional
T2 sequence (Q92698 whole entry): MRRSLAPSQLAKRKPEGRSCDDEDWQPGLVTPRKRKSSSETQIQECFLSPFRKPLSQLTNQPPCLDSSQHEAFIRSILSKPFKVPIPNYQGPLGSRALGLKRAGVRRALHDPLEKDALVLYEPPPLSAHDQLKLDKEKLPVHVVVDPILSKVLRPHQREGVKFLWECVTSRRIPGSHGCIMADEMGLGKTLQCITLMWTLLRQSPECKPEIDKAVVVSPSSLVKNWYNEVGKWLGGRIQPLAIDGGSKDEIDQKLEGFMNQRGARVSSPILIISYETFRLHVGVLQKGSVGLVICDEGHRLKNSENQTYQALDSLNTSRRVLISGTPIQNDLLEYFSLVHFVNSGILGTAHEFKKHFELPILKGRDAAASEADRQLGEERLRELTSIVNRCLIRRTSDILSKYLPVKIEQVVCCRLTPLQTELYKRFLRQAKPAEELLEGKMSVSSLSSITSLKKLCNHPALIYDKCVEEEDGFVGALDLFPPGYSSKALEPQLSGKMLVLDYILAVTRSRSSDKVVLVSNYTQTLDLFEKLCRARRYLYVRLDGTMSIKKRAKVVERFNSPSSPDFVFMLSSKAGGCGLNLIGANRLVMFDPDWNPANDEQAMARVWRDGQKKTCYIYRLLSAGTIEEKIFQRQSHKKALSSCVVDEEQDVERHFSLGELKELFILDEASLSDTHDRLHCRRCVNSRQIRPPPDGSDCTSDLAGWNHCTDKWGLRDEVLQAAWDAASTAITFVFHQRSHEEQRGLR

[3] = target: T3, Tyrosine-protein phosphatase non-receptor type 5 (Homo sapiens, UniProt P54829); test: PTPN5 enzyme inhibition – biochemical, fluorescence intensity, uHTS hits, confirmation (AID 602372); assay type: functional; settings: read-out: IC50_Mean
T3 sequence (P54829 whole entry): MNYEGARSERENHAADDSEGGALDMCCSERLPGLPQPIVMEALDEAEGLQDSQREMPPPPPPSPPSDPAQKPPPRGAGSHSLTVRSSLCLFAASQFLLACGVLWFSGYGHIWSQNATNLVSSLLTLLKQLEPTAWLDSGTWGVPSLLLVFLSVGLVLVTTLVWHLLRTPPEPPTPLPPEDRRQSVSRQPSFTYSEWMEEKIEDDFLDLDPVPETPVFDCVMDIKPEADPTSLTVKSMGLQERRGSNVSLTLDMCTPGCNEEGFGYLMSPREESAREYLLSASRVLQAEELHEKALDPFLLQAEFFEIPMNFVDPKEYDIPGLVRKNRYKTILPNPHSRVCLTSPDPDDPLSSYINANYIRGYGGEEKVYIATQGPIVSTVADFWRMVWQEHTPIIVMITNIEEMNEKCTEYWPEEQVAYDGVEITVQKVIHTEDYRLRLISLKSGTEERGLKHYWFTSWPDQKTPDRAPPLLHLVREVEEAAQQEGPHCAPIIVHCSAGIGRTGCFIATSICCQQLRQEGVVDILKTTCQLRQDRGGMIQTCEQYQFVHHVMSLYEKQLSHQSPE

[4] = target: T4, Caspase-6 (Homo sapiens, UniProt P55212); test: inhibition of CASP6 peptide cleavage – biochemical, VEID-R110 fluorescence, cherry-pick, dose response (AID 720632)
T4 sequence (P55212 whole entry): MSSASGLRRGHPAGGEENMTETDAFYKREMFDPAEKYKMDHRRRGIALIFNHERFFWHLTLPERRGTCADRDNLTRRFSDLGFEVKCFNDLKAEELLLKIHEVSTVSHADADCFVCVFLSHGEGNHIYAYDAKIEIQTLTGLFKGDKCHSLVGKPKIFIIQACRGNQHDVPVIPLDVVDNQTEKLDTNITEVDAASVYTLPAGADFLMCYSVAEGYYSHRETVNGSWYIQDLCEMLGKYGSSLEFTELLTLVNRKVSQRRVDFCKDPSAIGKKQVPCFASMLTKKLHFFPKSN

[5] = target: Dual specificity protein phosphatase 3 (Homo sapiens, UniProt P51452); test: VHR phosphatase inhibition, dose response, selectivity assay for STEP inhibitor project, biochemical (AID 602374); assay type: functional; settings: read-out: IC50_Mean
Chain of Dual specificity protein phosphatase 3 (P51452 whole entry, the tested form may be a part): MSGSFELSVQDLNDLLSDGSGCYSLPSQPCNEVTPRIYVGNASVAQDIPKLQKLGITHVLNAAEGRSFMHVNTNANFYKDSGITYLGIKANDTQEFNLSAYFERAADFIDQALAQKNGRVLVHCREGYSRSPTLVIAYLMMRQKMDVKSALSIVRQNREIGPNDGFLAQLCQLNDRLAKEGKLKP

[6] = target: T5, Polyadenylate-binding protein 1 (Homo sapiens, UniProt P11940); test: MLLE domain peptide-binding blockers, IC50 – biochemical, fluorescence polarization, FITC-PAM2 peptide, dose response (AID 602259); assay type: functional; settings: read-out: IC50_Mean
T5 sequence (P11940 whole entry, the tested form may be a part): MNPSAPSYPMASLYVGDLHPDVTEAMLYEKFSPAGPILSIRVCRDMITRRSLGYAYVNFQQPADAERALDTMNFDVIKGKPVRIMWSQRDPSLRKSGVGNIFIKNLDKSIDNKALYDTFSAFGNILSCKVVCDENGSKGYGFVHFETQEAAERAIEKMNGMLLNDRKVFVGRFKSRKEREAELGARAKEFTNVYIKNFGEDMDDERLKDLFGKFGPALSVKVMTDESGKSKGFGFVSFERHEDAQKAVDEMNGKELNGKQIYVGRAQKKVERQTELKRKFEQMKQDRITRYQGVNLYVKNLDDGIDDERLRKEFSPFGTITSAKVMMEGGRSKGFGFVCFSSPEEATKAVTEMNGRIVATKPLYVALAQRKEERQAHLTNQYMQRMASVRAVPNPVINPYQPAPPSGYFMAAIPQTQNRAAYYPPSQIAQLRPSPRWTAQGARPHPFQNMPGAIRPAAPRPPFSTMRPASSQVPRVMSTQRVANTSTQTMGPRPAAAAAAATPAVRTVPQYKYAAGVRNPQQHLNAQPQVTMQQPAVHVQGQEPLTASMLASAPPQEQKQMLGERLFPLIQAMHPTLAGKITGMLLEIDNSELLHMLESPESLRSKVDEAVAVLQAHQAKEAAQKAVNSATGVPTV

[7] = target: T6, Tyrosine-protein phosphatase non-receptor type 11 (Homo sapiens, UniProt Q06124); test: PTPN11 enzyme inhibitors – biochemical, selectivity assay for STEP inhibitor project, dose response (AID 602367); assay type: functional; settings: read-out: IC50_Mean
T6 sequence (Q06124 whole entry): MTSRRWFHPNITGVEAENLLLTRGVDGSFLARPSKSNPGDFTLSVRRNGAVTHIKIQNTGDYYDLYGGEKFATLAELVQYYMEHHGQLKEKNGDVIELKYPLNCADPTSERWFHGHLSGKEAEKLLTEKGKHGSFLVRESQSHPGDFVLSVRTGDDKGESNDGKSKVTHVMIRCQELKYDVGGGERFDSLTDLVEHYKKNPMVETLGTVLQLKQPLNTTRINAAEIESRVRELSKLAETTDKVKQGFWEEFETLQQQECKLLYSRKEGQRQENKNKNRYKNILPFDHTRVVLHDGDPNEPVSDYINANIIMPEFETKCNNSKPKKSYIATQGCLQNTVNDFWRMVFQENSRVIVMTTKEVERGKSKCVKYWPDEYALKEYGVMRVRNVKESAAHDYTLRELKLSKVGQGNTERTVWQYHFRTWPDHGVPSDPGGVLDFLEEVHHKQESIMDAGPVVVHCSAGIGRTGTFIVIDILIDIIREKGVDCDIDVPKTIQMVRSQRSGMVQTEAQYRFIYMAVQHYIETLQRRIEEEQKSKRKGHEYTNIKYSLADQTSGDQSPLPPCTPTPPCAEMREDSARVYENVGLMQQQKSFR

[8] = target: T5, Polyadenylate-binding protein 1; test: MLLE binding blockers, Cy5 peptide tracer – biochemical, fluorescence polarization, Cy5-PAM2 peptide, secondary, miRNA deadenylation inhibitor project, dose response (AID 602260); assay type: functional; settings: read-out: IC50_Mean
[9] = target: T7, Histone-lysine N-methyltransferase NSD2 (Homo sapiens, UniProt O96028); assay type: biochemical
T7 sequence (O96028 whole entry): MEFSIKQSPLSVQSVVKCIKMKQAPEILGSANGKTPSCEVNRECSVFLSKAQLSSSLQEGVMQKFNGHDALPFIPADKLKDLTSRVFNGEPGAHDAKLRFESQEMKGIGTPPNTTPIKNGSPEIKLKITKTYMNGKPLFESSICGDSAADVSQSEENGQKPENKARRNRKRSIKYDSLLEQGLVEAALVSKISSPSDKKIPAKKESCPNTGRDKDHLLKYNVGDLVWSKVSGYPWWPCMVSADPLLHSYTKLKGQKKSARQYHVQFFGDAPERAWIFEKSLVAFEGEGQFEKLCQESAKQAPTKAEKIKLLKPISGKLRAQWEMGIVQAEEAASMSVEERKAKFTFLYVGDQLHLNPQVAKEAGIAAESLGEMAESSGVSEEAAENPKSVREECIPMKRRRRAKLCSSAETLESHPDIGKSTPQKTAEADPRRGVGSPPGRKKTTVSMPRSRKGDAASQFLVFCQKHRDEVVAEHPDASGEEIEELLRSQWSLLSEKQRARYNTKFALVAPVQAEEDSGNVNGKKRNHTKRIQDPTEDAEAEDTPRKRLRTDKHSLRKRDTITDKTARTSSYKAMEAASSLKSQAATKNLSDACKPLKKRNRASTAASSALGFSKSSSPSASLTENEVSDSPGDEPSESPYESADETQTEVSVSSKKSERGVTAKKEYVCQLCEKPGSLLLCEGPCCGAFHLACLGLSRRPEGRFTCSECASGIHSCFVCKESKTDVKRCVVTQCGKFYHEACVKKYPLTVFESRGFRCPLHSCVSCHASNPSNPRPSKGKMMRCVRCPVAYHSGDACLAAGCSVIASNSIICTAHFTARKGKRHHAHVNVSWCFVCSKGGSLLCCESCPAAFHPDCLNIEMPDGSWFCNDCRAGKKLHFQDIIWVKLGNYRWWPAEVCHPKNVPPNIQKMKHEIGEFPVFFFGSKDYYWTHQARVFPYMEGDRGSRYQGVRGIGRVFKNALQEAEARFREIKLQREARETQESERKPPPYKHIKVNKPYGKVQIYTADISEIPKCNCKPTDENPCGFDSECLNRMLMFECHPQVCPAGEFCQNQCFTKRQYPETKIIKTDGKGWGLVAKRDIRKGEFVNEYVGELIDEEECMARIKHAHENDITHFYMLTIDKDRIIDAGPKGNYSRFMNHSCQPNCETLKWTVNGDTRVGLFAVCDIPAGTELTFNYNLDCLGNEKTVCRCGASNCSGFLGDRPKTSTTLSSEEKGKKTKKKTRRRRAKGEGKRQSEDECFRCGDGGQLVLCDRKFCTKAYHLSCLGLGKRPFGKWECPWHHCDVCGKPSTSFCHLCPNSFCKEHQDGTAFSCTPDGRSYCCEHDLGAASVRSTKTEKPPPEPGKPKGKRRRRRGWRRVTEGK

[10] = intracellular Trypanosoma cruzi inhibitors in host cells – cell-based, plate reader, cherry-pick samples, set 3, dose response (AID 651818); assay type: functional;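 note: compounds incubated with infected cells for about four days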

- AC50 [1]: 9 µM (active)
- AC50 [2]: 27.2 µM (active)
SMILES: CN(C)CCNc1ncnc2sc(-c3ccccc3)cc12

- IC50 [3]: 33.4 µM (inactive)
- AC50 [4]: 2.15 µM (active)
- IC50 [5]: 3.43 µM (active)
- IC50 [6]: > 66 µM (inactive)
- IC50 [7]: 1.04 µM (active)
- IC50 [8]: > 66 µM (inactive)
- AC50 [9]: 6.49 µM (active)
SMILES: Nc1ccc2c(O)cc(S(=O)(=O)O)cc2c1

SMILES: C[C@H]1CN([C@@H](C)CO)C(=O)Cc2cc(NC(=O)Nc3cccc4ccccc34)ccc2O[C@@H]1CN(C)CC1CCCCC1
- AC50 [10]: 4.35 µM (active)

- IC50 [3]: 16.5 µM (active)
- IC50 [5]: 0.997 µM (active)
- IC50 [7]: 3.1 µM (active)
SMILES: Cc1ccc(C(=S)N2CCN(Cc3ccccc3)CC2)s1
